Assay results reported in US7560458B2, “Triazolopyrimidine derivatives as glycogen synthase kinase 3 inhibitors” (Janssen Pharmaceutica, N.V., priority 2003, dated 2009).

How the values were obtained:
GSK3alpha = GSK3alpha (Homo sapiens, UniProt P49840); experiment: GSK3alpha assay (same as the GSK3beta assay, GSK3alpha 0.25 ng/μl); type: biochemical; conditions: −log IC50 (M); given as ranges (>8; 7-8; <7); read-out: pIC50 (GSK3alpha) (converted)
Method: (§1) GSK3beta assays were performed at room temperature in a 100 μl reaction volume of 25 mM Tris (ph 7.4) containing 10 mM MgCl2.6H2O 1 mM DTT, 0.1 mg/ml BSA, 5% glyceol and containing 5.7 ng/μl GSK3β, 5 μM biotinylated phosphorylated CREB peptide, 1 μM APT, 0.85 μCi/ml ATP-P^33 and a suitable amount of a test compound of formula (I). After one hour, the reaction was terminated by adding 70 μl of Stop mix (0.1 mM APT, 5 mg/ml streptavidin coated PVT SPA bead pH 11.0). The beads to which the phosphorylated CREB peptide is attached were allowed to settle overnight and the radioactivity of the beads was counted in a microtiterplate scintillation counter and compared with the results obtained in a control experiment (without the presence of a test compound) in order to determine the percentage of GSK3β inhibition. The IC50 value, i.e. the concentration (M) of the test compound at which 50% of GSK3β is inhibited, was calculated from the dose response curve obtained by performing the above-described GSKK3β assay in the presence of different amounts of the test compound.
The GSK3alpha assay was performed in the same way as described above for the GSK3beta assay except for the concentration of GSK3alpha which is 0.25 ng/μl.

GSK3β = GSK3β (Homo sapiens, UniProt P49841); experiment: GSK3beta assay (SPA, biotinylated phosphorylated CREB peptide, ATP-P33); type: biochemical; conditions: −log IC50 (M); given as ranges (>8; 7-8; <7); read-out: pIC50 (GSK3beta) (converted)
Method: as §1

Sequence of GSK3alpha (P49840 whole entry, species assumed): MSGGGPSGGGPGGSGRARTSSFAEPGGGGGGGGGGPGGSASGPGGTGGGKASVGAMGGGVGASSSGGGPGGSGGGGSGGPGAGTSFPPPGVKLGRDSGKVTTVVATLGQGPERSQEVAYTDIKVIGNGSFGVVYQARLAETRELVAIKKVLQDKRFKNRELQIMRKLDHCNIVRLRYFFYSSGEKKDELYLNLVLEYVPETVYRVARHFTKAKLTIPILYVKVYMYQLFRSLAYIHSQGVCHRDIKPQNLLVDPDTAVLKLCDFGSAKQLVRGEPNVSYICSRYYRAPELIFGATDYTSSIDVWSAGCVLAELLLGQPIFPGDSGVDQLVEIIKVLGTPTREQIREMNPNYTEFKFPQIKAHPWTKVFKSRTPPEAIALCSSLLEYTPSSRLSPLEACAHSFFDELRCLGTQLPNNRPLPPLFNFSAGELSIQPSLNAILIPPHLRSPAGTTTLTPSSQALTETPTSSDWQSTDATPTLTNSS
Sequence of GSK3β (P49841 whole entry, species assumed): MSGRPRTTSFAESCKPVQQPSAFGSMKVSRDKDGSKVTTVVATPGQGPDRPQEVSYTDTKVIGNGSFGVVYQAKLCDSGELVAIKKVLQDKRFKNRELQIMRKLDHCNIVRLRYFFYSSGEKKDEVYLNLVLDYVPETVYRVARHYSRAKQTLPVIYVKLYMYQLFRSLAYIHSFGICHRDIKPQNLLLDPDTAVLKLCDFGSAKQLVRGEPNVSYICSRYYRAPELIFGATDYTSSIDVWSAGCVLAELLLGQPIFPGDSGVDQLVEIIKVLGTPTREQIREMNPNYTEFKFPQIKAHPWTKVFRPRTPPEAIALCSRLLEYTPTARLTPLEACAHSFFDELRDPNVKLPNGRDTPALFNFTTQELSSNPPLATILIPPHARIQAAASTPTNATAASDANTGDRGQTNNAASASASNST

IC50 (GSK3alpha) [M] | IC50 (GSK3β) [M] | SMILES
< 1e-08 | < 1e-08 | COc1ccc(Nc2ncc3nnn(-c4cccc(F)c4)c3n2)cn1 [Compound 91]
< 1e-08 | < 1e-08 | CN(C)S(=O)(=O)c1cccc(Nc2ncc3nnn(-c4cccc(F)c4)c3n2)c1 [Compound 94]
< 1e-08 | < 1e-08 | CNS(=O)(=O)c1cccc(Nc2ncc3nnn(-c4cccc(F)c4)c3n2)c1 [Compound 95]
1e-08 to 1e-07 | 1e-08 to 1e-07 | COCc1cccc(-n2nnc3cnc(Nc4cccc(S(C)(=O)=O)c4)nc32)c1 [Compound 96]
< 1e-08 | < 1e-08 | COCc1cccc(-n2nnc3cnc(Nc4cccc(C#N)c4)nc32)c1 [Compound 97]
< 1e-08 | < 1e-08 | NC(=O)CNS(=O)(=O)c1cccc(Nc2ncc3nnn(-c4cccc(F)c4)c3n2)c1 [Compound 98]
< 1e-08 | < 1e-08 | CC(=O)NCc1cccc(-n2nnc3cnc(Nc4cccc(NS(C)(=O)=O)c4)nc32)c1 [Compound 99]
< 1e-08 | < 1e-08 | CN(C)C(=O)c1cccc(Nc2ncc3nnn(-c4cccc(F)c4)c3n2)c1 [Compound 100]
< 1e-08 | < 1e-08 | O=C(NCCO)c1cccc(Nc2ncc3nnn(-c4cccc(F)c4)c3n2)c1 [Compound 101]
< 1e-08 | < 1e-08 | CC(=O)NCCNS(=O)(=O)c1cccc(Nc2ncc3nnn(-c4cccc(F)c4)c3n2)c1 [Compound 102]
< 1e-08 | > 1e-09 | COCCNS(=O)(=O)c1cccc(Nc2ncc3nnn(-c4cccc(F)c4)c3n2)c1 [Compound 103]
< 1e-08 | < 1e-08 | COC(=O)c1cc(Nc2ncc3nnn(-c4cccc(F)c4)c3n2)ccc1NC(C)=O [Compound 104]
< 1e-08 | < 1e-08 | CC(=O)NCc1cccc(-n2nnc3cnc(Nc4cccc(C#N)c4)nc32)c1 [Compound 107]
< 1e-08 | < 1e-08 | CC(=O)NCc1cccc(Nc2ncc3nnn(-c4cccc(CNC(C)=O)c4)c3n2)c1 [Compound 108]
< 1e-08 | < 1e-08 | CC(=O)NCc1cccc(-n2nnc3cnc(Nc4cccc(NC(C)=O)c4)nc32)c1 [Compound 109]
< 1e-08 | < 1e-08 | CC(=O)NCc1cccc(-n2nnc3cnc(Nc4cccc(CO)c4)nc32)c1 [Compound 110]
< 1e-08 | < 1e-08 | CC(=O)NCc1cccc(-n2nnc3cnc(Nc4cccc(C(C)=O)c4)nc32)c1 [Compound 111]
< 1e-08 | < 1e-08 | CC(=O)NCc1cccc(-n2nnc3cnc(Nc4cccc(S(N)(=O)=O)c4)nc32)c1 [Compound 112]
< 1e-08 | < 1e-08 | CC(=O)NCc1cccc(-n2nnc3cnc(Nc4cccc(S(C)(=O)=O)c4)nc32)c1 [Compound 113]
1e-08 to 1e-07 | 1e-08 to 1e-07 | COCc1cccc(-n2nnc3cnc(Nc4cccc(C(=O)O)c4)nc32)c1 [Compound 121]
< 1e-08 | < 1e-08 | CSc1cccc(Nc2ncc3nnn(-c4cccc(F)c4)c3n2)c1 [Compound 122]

IC50 (GSK3alpha) [M] | IC50 (GSK3β) [M] | SMILES
< 1e-08 | < 1e-08 | O=C(O)c1ccc(Nc2ncc3nnn(-c4ccccc4)c3n2)cc1 [Compound 123]
< 1e-08 | < 1e-08 | O=C(O)c1ccc(Nc2ncc3nnn(-c4cccc(Br)c4)c3n2)cc1 [Compound 124]
< 1e-08 | < 1e-08 | COCc1cccc(-n2nnc3cnc(Nc4ccc(C(=O)O)cc4)nc32)c1 [Compound 125]
< 1e-08 | < 1e-08 | CC(=O)NCc1cccc(-n2nnc3cnc(Nc4ccc(C(=O)O)cc4)nc32)c1 [Compound 126]
< 1e-08 | < 1e-08 | COc1ccc(Nc2ncc3nnn(-c4cccc(CNC(C)=O)c4)c3n2)cn1 [Compound 127]
1e-08 to 1e-07 | 1e-08 to 1e-07 | CC(=O)NCc1cccc(-n2nnc3cnc(Nc4cccc(S(=O)(=O)NCCO)c4)nc32)c1 [Compound 131]
< 1e-08 | < 1e-08 | COCc1cccc(Nc2ncc3nnn(-c4cccc(COC)c4)c3n2)c1 [Compound 132]
< 1e-08 | < 1e-08 | COCc1cccc(-n2nnc3cnc(Nc4ccc(OC)nc4)nc32)c1 [Compound 133]
< 1e-08 | < 1e-08 | COC(=O)c1cc(Nc2ncc3nnn(-c4cccc(F)c4)c3n2)ccc1N [Compound 134]
< 1e-08 | < 1e-08 | CC(=O)N(C)c1ccc(Nc2ncc3nnn(-c4cccc(F)c4)c3n2)cc1 [Compound 135]
< 1e-08 | < 1e-08 | O=C(O)c1ccc(Nc2ncc3nnn(-c4cccc(F)c4)c3n2)cc1O [Compound 136]
< 1e-08 | < 1e-08 | O=C(O)c1ccc(Nc2ncc3nnn(-c4cccc(F)c4)c3n2)cc1Cl [Compound 137]
< 1e-08 | < 1e-08 | COCc1cccc(-n2nnc3cnc(Nc4ccc(C(=O)O)c(Cl)c4)nc32)c1 [Compound 138]
< 1e-08 | < 1e-08 | COCc1cccc(-n2nnc3cnc(Nc4ccc(CCO)cc4)nc32)c1 [Compound 139]
< 1e-08 | < 1e-08 | CNS(=O)(=O)c1cccc(Nc2ncc3nnn(-c4cccc(CNC(C)=O)c4)c3n2)c1 [Compound 140]
1e-08 to 1e-07 | 1e-08 to 1e-07 | COCc1cccc(-n2nnc3cnc(Nc4cccc(S(=O)(=O)NCC(N)=O)c4)nc32)c1 [Compound 141]
< 1e-08 | < 1e-08 | COCc1cccc(-n2nnc3cnc(Nc4cccc(S(=O)(=O)NCCO)c4)nc32)c1 [Compound 142]
< 1e-08 | < 1e-08 | COCc1cccc(-n2nnc3cnc(Nc4cccc(C(C)O)c4)nc32)c1 (stereo not drawn) [Compound 143]
< 1e-08 | < 1e-08 | COCc1cccc(-n2nnc3cnc(Nc4cccc(CO)c4)nc32)c1 [Compound 144]
< 1e-08 | < 1e-08 | NS(=O)(=O)c1ccc(Nc2ncc3nnn(-c4cccc(F)c4)c3n2)cc1 [Compound 145]
< 1e-08 | < 1e-08 | COCc1cccc(-n2nnc3cnc(Nc4ccc(S(N)(=O)=O)cc4)nc32)c1 [Compound 146]

IC50 (GSK3alpha) [M] | IC50 (GSK3β) [M] | SMILES
< 1e-08 | < 1e-08 | OCCc1ccc(Nc2ncc3nnn(-c4cccc(F)c4)c3n2)cc1 [Compound 147]
< 1e-08 | 1e-08 to 1e-07 | COCc1cccc(-n2nnc3cnc(Nc4cccc(C(=O)NCCNC(C)=O)c4)nc32)c1 [Compound 149]
< 1e-08 | < 1e-08 | OCCc1cccc(Nc2ncc3nnn(-c4cccc(F)c4)c3n2)c1 [Compound 150]
< 1e-08 | < 1e-08 | COCc1cccc(-n2nnc3cnc(Nc4cccc(CCO)c4)nc32)c1 [Compound 151]
< 1e-08 | < 1e-08 | NC(=O)Cc1cccc(Nc2ncc3nnn(-c4cccc(F)c4)c3n2)c1 [Compound 153]
1e-08 to 1e-07 | 1e-08 to 1e-07 | COCc1cccc(-n2nnc3cnc(Nc4cccc(S(=O)(=O)NCCNC(C)=O)c4)nc32)c1 [Compound 154]
< 1e-08 | 1e-08 to 1e-07 | COCC(=O)NCc1cccc(-n2nnc3cnc(Nc4ccc(C(=O)O)cc4)nc32)c1 [Compound 155]
< 1e-08 | < 1e-08 | COCC(=O)NCc1cccc(-n2nnc3cnc(Nc4cccc(NC(C)=O)c4)nc32)c1 [Compound 156]
< 1e-08 | < 1e-08 | COCC(=O)NCc1cccc(-n2nnc3cnc(Nc4ccc(NC(C)=O)c(C(=O)OC)c4)nc32)c1 [Compound 157]
< 1e-08 | < 1e-08 | COCC(=O)NCc1cccc(-n2nnc3cnc(Nc4cccc(NS(C)(=O)=O)c4)nc32)c1 [Compound 158]
1e-08 to 1e-07 | 1e-08 to 1e-07 | NS(=O)(=O)c1ccc(Nc2ncc3nnn(-c4cccc(CC(=O)O)c4)c3n2)cc1 [Compound 160]
< 1e-08 | < 1e-08 | CC(=O)NCc1cccc(Nc2ncc3nnn(-c4cccc(CCO)c4)c3n2)c1 [Compound 167]
< 1e-08 | < 1e-08 | COCc1cccc(Nc2ncc3nnn(-c4cccc(CCO)c4)c3n2)c1 [Compound 168]
< 1e-08 | < 1e-08 | NS(=O)(=O)c1ccc(Nc2ncc3nnn(-c4cccc(CCO)c4)c3n2)cc1 [Compound 169]
< 1e-08 | < 1e-08 | COc1cc(Nc2ncc3nnn(-c4cccc(CCO)c4)c3n2)ccc1F [Compound 171]
< 1e-08 | < 1e-08 | OCCc1cccc(Nc2ncc3nnn(-c4cccc(CCO)c4)c3n2)c1 [Compound 172]
< 1e-08 | < 1e-08 | COc1ccc(Nc2ncc3nnn(-c4cccc(CCO)c4)c3n2)cn1 [Compound 173]
< 1e-08 | < 1e-08 | COCC(=O)NCc1cccc(-n2nnc3cnc(Nc4ccc(S(N)(=O)=O)cc4)nc32)c1 [Compound 174]
< 1e-08 | < 1e-08 | COCC(=O)NCc1cccc(-n2nnc3cnc(Nc4cccc(C#N)c4)nc32)c1 [Compound 175]
1e-08 to 1e-07 | 1e-08 to 1e-07 | NC(=O)CNC(=O)c1cccc(Nc2ncc3nnn(-c4cccc(CC(=O)O)c4)c3n2)c1 [Compound 176]
1e-08 to 1e-07 | 1e-08 to 1e-07 | CS(=O)(=O)Nc1cccc(Nc2ncc3nnn(-c4cccc(CC(=O)O)c4)c3n2)c1 [Compound 180]
